These results are taken from patent US20230277553A1, “THERAPEUTIC COMPOSITION OF CURE-PRO COMPOUNDS FOR TARGETED DEGRADATION OF BET DOMAIN PROTEINS, AND METHODS OF MAKING AND USAGE” (CORNELL UNIVERSITY, priority 2020, published 2023).

Each structure is given as a SMILES string. Entries after “also recorded” stand apart in the source; their conditions may differ.

Holding throughout (format): cell-based
The target in assay [1] is T1, BRD4 (Homo sapiens, UniProt O60885). The assay is described as follows: CURE-PRO-mediated BRD4 degradation, WES (ProteinSimple), HeLa cells. More on the design: endogenous in cells; host or cells: HeLa. The following applies: 10 μM each, 4-24 h with washout after 4 h, or 100 nM-10 μM. As to the method: All cell lines were purchased from ATCC or DSMZ and grown at 37° C. with 5% CO2. Human HeLa cells were cultured in complete growth medium (Dulbecco's modified Eagle's medium (DMEM) supplemented with 10% FBS); MCF7 cells were cultured in complete growth medium (Dulbecco's modified Eagle's medium (DMEM) supplemented with 10% FBS and 0.01 mg/ml human recombinant insulin (Sigma Aldrich); Namalwa and MOLM-13 cells were cultured in complete growth medium (RPMI 1640 medium supplemented with 10% FBS); MV-4-11 were cultured in complete growth medium (Iscove's Modified Dulbecco's medium, supplemented with 10% FBS); HCT116 cells were cultured in complete growth medium (McCoy's 5a Medium supplemented with 10% FBS). For cellular degradation of BRD4 studies, cells were seeded in a 12-well plate at 70-80% confluency, allowed to attach overnight, and incubated with the indicated compounds for the indicated time. When indicated, a 15-minute pretreatment with 10 μM pomalidomide, 10 μM VHL298, 10 μM Nutlin3a, 1 μM MG-132 or 1 μM Carfilzomib was performed before the addition of CURE-PROs. For washout studies, after CURE-PRO treatment, media was aspirated and incubated with complete medium for the indicated time before lysis.
Anti-BRD4 (13440, 1:1,000 dilution for Western Blot and 1:25 dilution for ProteinSimple); Anti-BRD2 (5848 1:1,000 dilution for Western Blot and 1:25 dilution for ProteinSimple); β-Actin (3700, 1:2,000 dilution for Western Blot), β-Actin (4970, 1:50 dilution for ProteinSimple) anti-mouse IgG-HRP, and anti-rabbit IgG-HRP antibodies were purchased Cell Signaling Technology. Anti-GAPDH (600-401-A33, 1:100 dilution for ProteinSimple) was purchased from Rockland Immunochemicals, Inc. Anti-BRD3 (sc-81202, 1:200 dilution for Western Blot) was purchased from Santa Cruz Biotechnology.
WES Simple analysis was performed on WES system (ProteinSimple-Biotechne) according to the manufacturer's instructions. Total protein concentrations of cell lysates were determined by the Pierce BCA kit (Thermo Fisher). 3 μL of 0.3 μg/μL of the protein lysate was loaded onto a 12- to 230-kDa WES assay plate (ProteinSimple) where 300 nL sample was withdrawn through a capillary, subjected to electrophoretic separation of proteins by size, and followed by the simultaneous, HRP-based detection of proteins using the Anti-Rabbit Detection Module (Proteinsimple: #DM-001). The electropherograms were checked then the automatic peak detection was manually corrected if it was required.
HeLa cells (2.5×10^6) were treated for 4-24 hours with the compounds solubilized in DMSO. After 4 hours, indicated points were washed and cells were left in full growth media. Compounds were added at 10 μM each. […]

The subject of a further assay is caspase 3/7. The assay is described as follows: Caspase-Glo 3/7 assay, Namalwa cells. The following applies: 24 hours, 1:1 with 8047. As to the method:
Caspase-glo® assay (Promega) was conducted following the manufacturer's recommendations. Cells were seeded at a density of 5000 cells/well in a white 96 well plates (Corning, #3917) in a total volume of 100 μl with respective monomers, combinations of BRD ligands together with E3 ligase ligands or vehicle control treatment. After a 24 h incubation, 100 μl of the […] substrate was added per well and luminescence was read on a Spectramax M5 (Molecular Devices).
Namalwa cells (5×104) were treated for 24 hours with the compounds solubilized in DMSO. FIG. 57 is a bar graph depiction of fold increase of apoptosis assessed via caspase 3/7 activity using the Caspase-glo assay (Promega) described above.
Molm-13 (FIG. 76A) or Namalwa (FIG. 76B) cells (5×10^4) were treated for 24 hours with the compounds solubilized in DMSO in white 96 well plates (10 nM-10 μM solubilized in DMSO). FIG. 76 is a bar graph depiction of fold increase of apoptosis assessed via caspase 3/7 activity using the Caspase-glo assay (Promega) described above.

The test system of the next assay is Namalwa cells. The assay is described as follows: CellTiter-Glo cell viability, Namalwa cells. The following applies: 72 hours, 1:1 with 8047, 10 nM-10 μM each. As to the method: CellTiter-Glo® 2.0 Cell Viability Assay (Promega) was carried out following the manufacturer's recommendations. Cells were seeded at a density of 1000 cells/well in a white 96 well plates (Corning, #3917) in a total volume of 100 μl with respective monomers, combinations of BRD ligands together with E3 ligase ligands or vehicle control treatment. After a 72 h incubation, 100 ul of the CellTiter-Glo® substrate was added per well and luminescence was read on a Spectramax M5 (Molecular Devices). Dose-response curves were generated using Graphpad Prism software.
Namalwa cells (1×104) were treated for 72 hours with the compounds solubilized in DMSO. Compounds were added at 10 nM-10 μM each. Cellular viability was determined using the CellTiter-Glo® Luminescent Cell Viability Assay (Promega) described above. FIG. 56 depicts the CURE-PRO-mediated loss of cellular viability for the BRD-E72 monomer (JQ1 derivatives comprising of boronic acid linkers), and the CRBN ligand, 8047 (a pomalidomide derivative comprising diol linkers) combined in a 1:1 ratio.

Assay [2] has as its target T1, BRD4. The experiment in a line: CURE-PRO-mediated BRD4 degradation, Western blot, HeLa cells. More on the design: endogenous in cells; host or cells: HeLa. The following applies: 24 h. The essentials: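 HeLa cells treated 24 h with compounds in DMSO (1-10 μM, 10 μM or 100 μM each; paired monomers combined 1:1), optional 15-min pretreatment with pomalidomide, VHL298, Nutlin3a (10 μM) or MG-132/carfilzomib (1 μM). RIPA lysates, 10-20 μg protein immunoblotted for BRD4 with β-actin, ECL detection.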
In general terms: A western blot detects proteins with antibodies after separation by electrophoresis.

For assay [3], the target named is T1, BRD4. The assay is described as follows: Summary of BRD4 degradation by CURE-PRO pairs, estimated from Western Blot or WES (Proteinsimple). The following applies: Table 1; CRBN ligand, second drawing (8047). More on the design: endogenous in cells. From the text: A black check mark indicates efficacy of 30% to 70% or higher protein degradation.

As for `CCNC(=O)C[C@@H]1N=C(c2ccc(Cl)cc2)c2cc(-c3cccc(B(O)O)c3)ccc2-n2c(C)nnc21` [BRD-E72, (3-((4S)-6-(4-chlorophenyl)-4-(2-(ethylamino)-2-oxoethyl)-1-methyl-4H-benzo[f][1,2,4]triazolo[4,3-a][1,4]diazepin-8-yl)phenyl)boronic acid], at BRD4 [1], the “BRD4 degradation, co-dosing with CRBN ligand 8047 (WES)” value is “marked BRD4 degradation after 4h with sustained degradation for up to 8h after drugs are washed out”. For the same molecule, the “Caspase 3/7 activation, co-dosed with CRBN ligand 8047” value in the assay with caspase 3/7 is given as “demonstrates activation of caspase 3/7; also recorded: marked caspase activation”. The “Loss of cell viability, co-dosed with CRBN ligand 8047” value in the assay on Namalwa cells was “increase in the loss of viability compared to monomer treatment alone; also recorded: marked loss in cell viability”. Also, the “BRD4 degradation, BRD ligand with pomalidomide (no 8047)” value at BRD4 [2] (10 μM) is “failed to induce BRD4 degradation”. Further, the “BRD4 degradation, BRD ligand alone” value at BRD4 [2] (BRD monomer alone, Western blot) was “no change in expression”. In addition, on BRD4 [3], the “Degradation of BRD4 in combination with CRBN ligand [drawing 371]” value is on record as “✓ (A black check mark indicates efficacy of 30% to 70% or higher protein degradation)”.
